In patent US7414068B2, “Benzopyran derivatives substituted with secondary amines including tetrazole, method for the preparation thereof and pharmaceutical compositions containing them” (Dongbu Hannong Chemical Co., Ltd., priority 2002, dated 2008):

Assays:
cortical neuron cells = test: Protective effect on iron-induced neuronal cell injury (LDH release); format: cell-based; conditions: FeSO4 50 μM; for protective effect on neuron cell: Inhibition (%, 30 μM compound addition): LDH reduction vs control; for IC50: LDH
Description: From the brains of 17˜18 day-old embryos, cortical neuron cells were isolated and then, cultured at 37° C. for 7˜9 days in a 5% CO2 incubator. The said cortical cell cultures were washed twice with MEM (Minimum essential medium) to reduce the serum level to 0.2%. […] Then, the compound of the said concentration was pre-treated for 30 min, respectively. For the experiment, test compound was dissolved in DMSO and diluted in a medium. At this time, the final concentration of DMSO was not allowed to exceed 0.1%. For control group, only vehicle was applied.
After the said pre-treatment, FeSO4 was added to the medium for a final concentration to be 50 μM. The medium was cultured in CO2 incubator for 24 hours. During the incubation, lactate dehydrogenase (LDH) was released by iron. The serum level of lactate dehydrogenase released into the medium was measured to assess necrosis of neuronal cell by the oxidative toxicity of iron. The protective effect on neuron cells of the test compounds was evaluated by calculating the LDH reduction rate of treatment-group compared with that of the control group.

brain homogenate = test: Inhibitory effect against lipid peroxidation by iron (MDA quantification); format: biochemical, rat; conditions: 100 μM compound, FeCl2 400 μM, 37° C. 30 min
Description: The rat brain was homogenized in a Krebs buffer (15 mM HEPES, 10 mM glucose, 140 mM NaCl, 3.6 mM KCl, 1.5 mM CaCl2, 1.4 mM KH2PO4, 0.7 mM MgCl2, PH 7.4) and the supernatant separated by centrifugation at 12,000 rpm for 10 min was used for further experiments. FeCl2 was added for the final concentration to be 400 μM. Then the brain homogenate was allowed to stand at 37° C. for 30 min for the facilitation of oxidation. Each of the test compounds was added at a concentration of 100 μM. For control group, only vehicle was applied.
Iron facilitates the oxidation of the said brain homogenate to produce malondialdehyde (MDA), lipid peroxidation product. Thus, the lipid peroxidation was determined by MDA quantification. The inhibitory effect against lipid peroxidation of the test compounds was evaluated by calculating MDA reduction rate of the test compounds compared with that of the control group.
Typically, the MDA quantification is achieved by reacting samples with 2-thiobarbituric acid (TBA) and measuring the absorbance at 530 nm. However, this method is unsuitable to treat samples on a large scale because of a boiling step. Thus, in this experiment, N-methyl-2-phenylindole was used instead of TBA.

[1] = system: isolated ischemic rat heart; test: Cardioprotective effect in ischemic heart models of rats (Langendorff); conditions: 10 μM
Description: Male rats (300˜450 g, obtained form the experimental animal team of the Korea Research Institute of Chemical Technology) were anaesthetized by the intra-peritoneal injection of sodium pentobarbital at a dose of 100 mg/kg. Heparin (1,000 U/kg) was injected to the tail vein and then the heart was enucleated. Particularly, cannula (PE 240) was inserted to the organ. Rats were mechanically ventilated with a rodent ventilator, in situ aorta cannula was inserted into their aorta. In retorograde perfusion, their hearts were enucleated, then just hung onto Langendorff Apparatus. Tissue attached at the heart was removed. Heart was perfused in oxygenated modified Krebs-Henseleit bicarbonate buffer (composition<mM/L>116 NaCl, 4.7 KCl, 1.1 MgSO4, 1.17 KH2PO4, 24.9 NaHCO3, 2.52 CaCl2, 8.32 Glucose, 2.0 Pyruvate) at a constant perfusion pressure (85 mmHg). A metal cannula attached to latex balloon filled with solvent (ethanol: water=1:1 (v/v)) was placed in the left ventricle through pulmonary vein and connected to a isovolumetric pressure transducer (H.S.E., Germany) for measurement of left ventricular pressure (LVP). The hearts were allowed to equilibrate for 15 min, at which time left ventricular end-diastolic pressure (EDP) was adjusted to 5 mmHg and this balloon volume was maintained throughout the experiment.
Baseline cardiac contractile function, heart rate (HR), and coronary flow (CF) were measured. Cardiac contractile function was calculated by […], yielding LVDP (left ventricular developed pressure). Double product RPP (rate-pressure product) (DP), another important parameter for indirectly assessing cardiac performance in Langendorff heart impossible to measure cardiac output was calculated by multiplying HR by LVDP.
Throughout the experiment, total coronary blood flow was measured by the use of coronary flow probe (diameter: 1.0 mm) installed in aortic cannula with electromagnetic flowmeter. Temperature of heart was steadily maintained by immersing the heart at 37° C. in physiological saline solution to which 95% O2/5% CO2 was constantly supplied. After stabilization for 15 min, the hearts were pre-treated for 10 min in vehicle (0.04% DMSO) or mixture containing the compound of the present invention or control material. Thereafter, cardiac contractile function, HR and CF were repeatedly measured. Global ischemia was induced by completely shutting off the perfusate for 30 min. Severity of ischemia was determined as the time to contracture (TTC, min) during global ischemia in which the first 5 mmHg increase in EDP was observed. Then, the hearts were reperfused and, 30 min later, contractile functions (LVDP, HR and CF) was repeatedly measured. After reperfusion was accomplished for 30 min, LDH (lactate dehydrogenase) was measured as a sensitive index for loss of cell viability with a kit.

[2] = Acute oral toxicity test in rats; conditions: SD, rat, in vivo, single oral dose, suspended in 0.5% methyl cellulose, read-out: lethal dose (LD50) for oral administration
Description: In this test, six-week old SPF SD rats were used with two rats assigned to each group. Each group was consisted of two rats. The compounds prepared in example 1, 7, 11, 17, 22, 24, 26, 28, 30, 32, 34, 42, 52, 54, 55, 56, 57, 59, 60, 61, 70, 75, 77, 79, 81, 83, 85, and 89 were suspended in 0.5% methyl cellulose, respectively. […] Also, hematological test and biochemical analysis were accomplished. After sacrificing the animals, autopsy was performed for macroscopic observations of the organs and tissues. As a result, there was no significant changes in clinical symptoms, body weight and mortalities. Also in hematology, serum chemistry parameters, macroscopic observation and drug-related changes were not observed.

isolated rat aorta = test: Vasodilating effect on blood vessel excised from rats (methoxamine-constricted aorta); conditions: isolated rat aorta constricted with methoxamine (3 μM); read-out: Concentration for inhibition of constriction induced by methoxamine in rat arota (IC50)
Excerpt: Rats (350˜450 g, obtained from the Experimental Animal Team of the Korea Research Institute of Chemical Technology) were knocked to be unconscious by hitting the occipital region, sacrificed by cervical dislocation, and underwent thoracotomy. After being quickly removed, the thoracic aorta was deprived of the adipose tissue and cut into aortic rings of 3 mm width. The aorta was lightly rubbed with cotton club soaked in a modified Krebs Henseleit buffer (Physiological salt solution) to remove the inner epithelial layer therefrom. While being hung in an organ bath containing a physiological buffer, the vascular smooth muscle was allowed to equilibrate under a resting tension of 2 g and then, stand for 1 hour at 37° C. for stabilization, supplying a carbogen consisting of 95% O2˜5% CO2.
Thereafter, the vascular smooth muscle was constricted with 10^−5M phenylephrine and washed several times with physiological saline solution. The said procedure was repeated again to ensure the stable reactivity of vascular smooth muscle to repetitive constriction/relaxation.
Thereafter, 3×10^−6 M methoxamine was applied to induce an intensive constriction in the vascular smooth muscle. When the vasoconstriction induced by the methoxamine was reached and maintained to a maximum, test compounds and control material was cumulatively added to the organ bath in concentration of 1, 3, 10 and 30 μM, respectively, to examine the vasodilating effect. Cromakalim, BMS-180448 (the compound of formula 4) and BMS-191095 (the compound of formula 5), known to be the first generation KATP opener with potent vasodilating effect were used as control materials.
The change rate of constriction by the addition of the drugs compared to the maximal constriction induced by methoxamine was calculated to plot a concentration-relaxation response curve. Through a least linear regression analysis, IC50 that the drug concentration at which the vascular tissue is relaxed to 50% extent of the maximal constriction, was obtained for each drug.

| Compound | protective effect on neuron cell: Inhibition (%, 30 μM compound addition) (cortical neuron cells; 24 hours) | inhibitory effect against lipid peroxidation induced by iron (%, 100 μM) (brain homogenate) | EDP (mmHg) ([1]; after 30 min global ischemia and reperfusion) | LDH (u/g) ([1]; reperfusion LDH release) | LVDP X HR (%) ([1]; reperfusion, % of pre-treatment DP) | TTC ([1]; time to contracture during global ischemia) | LD50 [2] | IC50 (isolated rat aorta) | IC50 (cortical neuron cells; Cortical neurone, 24 h) | IC50 (cortical neuron cells; 24 hours) |
| --- | --- | --- | --- | --- | --- | --- | --- | --- | --- | --- |
| COC(OC)[C@@]1(C)Oc2ccc(N)cc2[C@H](N(Cc2nnn(C)n2)c2ccccc2Cl)[C@H]1O [Example 30, (2S,3R,4S)-6-amino-4-[N-(2-chlorophenyl)-N-(2-methyl-2H-tetrazol-5-ylmethyl)amino]-3-hydroxy-2-methyl-2-dimethoxymethyl-3,4-dihydro-2H-1-benzopyran] | 103% | 84% | 17.0 mmHg | 15.7 u/g | 64.7% | 27.9 min | > 2000 mg/kg |  |  |  |
| COC(OC)[C@@]1(C)Oc2ccc([N+](=O)[O-])cc2[C@H](N(Cc2nnn(C)n2)c2ccc(O)cc2C)[C@H]1O [Example 64, (2S,3R,4S)-6-nitro-4-[N-(2-methyl-4-hydroxyphenyl)-N-(2-methyl-2H-tetrazol-5-ylmethyl)amino]-3-hydroxy-2-methyl-2-dimethoxymethyl-3,4-dihydro-2H-1-benzopyran] |  | 79% |  |  |  |  |  |  |  |  |
| COC(OC)[C@@]1(C)Oc2ccc(N)cc2[C@@H](N(Cc2nnn(C)n2)c2ccc(OC(F)(F)F)cc2)[C@@H]1O [Example 81, (2S,3S,4R)-6-amino-4-[N-(4-trifluoromethoxyphenyl)-N-(2-methyl-2H-tetrazol-5-ylmethyl)amino]-3-hydroxy-2-methyl-2-dimethoxymethyl-3,4-dihydro-2H-1-benzopyran] | 120% | 89% |  |  |  |  | > 2000 mg/kg | > 30000 nM | < 2000 nM | 1500 nM |
| COC(OC)[C@@]1(C)Oc2ccc(N)cc2[C@H](N(Cc2nnn(C)n2)c2ccccc2C(C)C)[C@H]1O [Example 52, (2S,3R,4S)-6-amino-4-[N-(2-isopropylphenyl)-N-(2-methyl-2H-tetrazol-5-ylmethyl)amino]-3-hydroxy-2-methyl-2-dimethoxymethyl-3,4-dihydro-2H-1-benzopyran] | 91% | 88% |  |  |  |  | > 2000 mg/kg |  | 3000 nM |  |
| COC(OC)[C@@]1(C)Oc2ccc(N)cc2[C@@H](N(Cc2nnn(C)n2)c2ccc(Cl)cc2)[C@@H]1OC(C)=O [Example 89, (2S,3S,4R)-6-amino-4-[N-(4-chlorophenyl)-N-(2-methyl-2H-tetrazol-5-ylmethyl)amino]-3-acetoxy-2-methyl-2-dimethoxymethyl-3,4-dihydro-2H-1-benzopyran] |  | 81% |  |  |  |  | > 2000 mg/kg |  |  |  |
| COC(OC)[C@@]1(C)Oc2ccc(N)cc2[C@H](N(Cc2nnn(C)n2)c2ccc(F)cc2)[C@H]1O [Example 56, (2S,3R,4S)-6-amino-4-[N-(4-fluorophenyl)-N-(2-methyl-2H-tetrazol-5-ylmethyl)amino]-3-hydroxy-2-methyl-2-dimethoxymethyl-3,4-dihydro-2H-1-benzopyran] | 100% | 76% |  |  |  |  | > 2000 mg/kg |  | 5300 nM |  |
| COC(OC)[C@@]1(C)Oc2ccc(N)cc2[C@H](N(Cc2nnn(C)n2)c2ccc(Cl)cc2C)[C@H]1O [Example 42, (2S,3R,4S)-6-amino-4-[N-(2-methyl-4-chlorophenyl)-N-(2-methyl-2H-tetrazol-5-ylmethyl)amino]-3-hydroxy-2-methyl-2-dimethoxymethyl-3,4-dihydro-2H-1-benzopyran] | 103% | 85% |  |  |  |  | > 2000 mg/kg |  | 2600 nM |  |
| CCOC(=O)c1ccc(N(Cc2nnn(C)n2)[C@H]2c3cc(N)ccc3O[C@](C)(C(OC)OC)[C@@H]2O)cc1 [Example 54, (2S,3R,4S)-6-amino-4-[N-(4-ethoxycarbonylphenyl)-N-(2-methyl-2H-tetrazol-5-ylmethyl)amino]-3-hydroxy-2-methyl-2-dimethoxymethyl-3,4-dihydro-2H-1-benzopyran] | 98% | 87% |  |  |  |  | > 2000 mg/kg |  | < 2000 nM | 1500 nM |
| COC(=O)c1cccc(N(Cc2nnn(C)n2)[C@H]2c3cc(N)ccc3O[C@](C)(C(OC)OC)[C@@H]2O)c1 [Example 59] | 77% | 70% |  |  |  |  | > 2000 mg/kg |  | < 2000 nM | 1800 nM |
